In BindingDB's records for doi:10.1111/cbdd.12530 (Chinese Academy of Sciences, 2015) one finds IC50 data, which are given here for five compounds.

Bounds are passed on as bounds.

Dihydroorotate dehydrogenase (quinone), mitochondrial, sequence (Q02127 whole entry): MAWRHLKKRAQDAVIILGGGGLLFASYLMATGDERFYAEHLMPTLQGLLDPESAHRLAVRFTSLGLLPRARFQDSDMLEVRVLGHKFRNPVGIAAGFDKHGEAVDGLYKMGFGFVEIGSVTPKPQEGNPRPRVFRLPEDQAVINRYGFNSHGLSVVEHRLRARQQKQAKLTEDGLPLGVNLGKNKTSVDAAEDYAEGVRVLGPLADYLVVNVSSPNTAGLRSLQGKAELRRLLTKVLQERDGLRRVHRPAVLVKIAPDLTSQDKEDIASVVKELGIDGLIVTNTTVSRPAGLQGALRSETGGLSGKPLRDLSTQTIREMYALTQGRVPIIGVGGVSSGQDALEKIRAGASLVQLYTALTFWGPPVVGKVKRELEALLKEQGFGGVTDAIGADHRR

The assay has as its target Dihydroorotate dehydrogenase (quinone), mitochondrial (Homo sapiens, UniProt Q02127). As to the kind of experiment: DCIP-linked Assay. The following applies: pH 8. The protocol: Recombinant human DHODH (final enzyme concentration between 20 and 60 nM in the assay well) were incubated at 37 °C in 50 mM Tris-HCl, 0.1% Triton X-100, 1 mM KCN, pH 8.0 with coenzyme Q10 (100 µM), and the tested compounds at different concentrations (final DMSO concentration 0.1% v/v). The reaction was initiatedby the addition of DHO (500 µM), and the reduction of DCIP (50 µM) was monitored through a decrease in absorbance at 650 nm.
As for `CC[C@H](C)[C@@H]1NC(=O)[C@@H]2CCCN2C1=O` [Cyclo L-Pro-L-Ile (Fr. 1-5)], the 50% inhibitory concentration (IC50) was > 50 µM.

For `CC(C)[C@@H]1NC(=O)[C@@H]2CCCN2C1=O` [Cyclo L-Pro-L-Val (Fr. 2-1)], the IC50 is > 50 µM.

For `O=C1N[C@@H](Cc2ccccc2)C(=O)N2CCC[C@@H]12` [Cyclo L-Pro-L-Phe (Fr. 2-2)], the IC50 is > 50 µM.

For the compound `CC(C)C[C@@H]1NC(=O)[C@@H]2CCCN2C1=O` [Cyclo L-Pro-L-Leu (Fr. 1-6)], the IC50 is > 50 µM.

`O=C1N[C@@H](Cc2ccccc2)C(=O)N2C[C@H](O)C[C@@H]12` [Cyclo L-OH-Pro-L-Phe (Fr. 1-4)]: 0.773 µM corresponded to half-maximal inhibition (IC50).

For orientation: IC50 means the concentration that inhibits the measured activity by half. A low value points to higher potency.
